Measured values as given in US10072304B2, “Nuclear localization of Src-family tyrosine kinases is required for growth factor-induced euchromatinization” (National University Corporation Chiba University, priority 2009, dated 2018).

System: COS-1 cells
Assay: Quantitation of chromatin condensation levels (S.D. value of PI intensity per pixel) in COS-1 cells
Type: cell-based, monkey
Procedure: COS-1, HeLa cells (Japanese Collection of Research Bioresources, Osaka), MCF-7 (provided by H. Saya), A431 (provided by M. N. Fukuda), HEK293 (provided by […]), HCT116 (provided by T. Tomonaga), and SYF ([37]; provided by M. Okada and S. Nada) cells were cultured in Iscove's modified DME containing 5% fetal bovine serum (FBS). Cells were transiently transfected with 0.5 μg of plasmid vector using Trans IT Transfection reagent (Mirus) or with 1 μg of plasmid vector using linear polyethylenimine (25 kDa) (Polyscience, Inc.). For growth factor stimulation, COS-1 cells were starved under low serum conditions (0.05% FBS) for 24 h and restimulated with serum (5% FBS). For stimulation of endogenous SFKs, cells were treated with 3 mM Na3VO4 for 3 h, and SFK-mediated tyrosine phosphorylation was verified by treatment with 10 μM PP2 (SFK inhibitor; Calbiochem) or 100 nM wortmannin (PI3K inhibitor; Alomone Labs) for 21 h before Na3VO4 treatment. Na3VO4 was dissolved at 500 mM in 500 mM unbuffered HEPES before use. For preparation of stable transfectant clones, SYF cells transfected with c-Src-wt or Lyn-wt were selected in 333 μg/mL Zeocin (Invitrogen), and COS-1 cells were transfected with the BOSH2BGFP-N1 vector, which encodes GFP-tagged histone H2B ([39,40]; provided by H. Saya), were selected in 3 μg/mL blasticidin. Confocal and Nomarski differential-interference-contrast images were obtained using a Fluoview FV500 confocal laser scanning microscope with a 40×1.00 NA oil and a 100×1.35 NA oil immersion objective (Olympus, Tokyo) and an LSM 510 confocal laser scanning microscope with a 63×1.40 NA oil immersion objective (Zeiss), as described. One planar (xy) section slice (0.6-μm thickness) is shown in all experiments. In brief, cells were fixed with 4% paraformaldehyde for 20 min, and permeabilized in phosphate-buffered saline (PBS) containing 0.1% saponin and 3% bovine serum albumin at room temperature. Cells were subsequently reacted with an appropriate primary antibody for 1 h, washed with PBS containing 0.1% saponin, stained with FITC- or TRITC-conjugated secondary antibody for 1 h. […] To ensure no bleed-through from the fluorescein signal into the red channel, fluorescein and rhodamine were independently excited at 488 nm and 543 nm, respectively. PI was excited at 488 or 543 nm. Emission signals were detected between 505 and 525 nm for fluorescein, at more than 560 nm for rhodamine and more than 610 nm for PI [44]. Composite figures were prepared using Photoshop 5.0 and Illustrator 9.0 software (Adobe). For nuclear staining with anti-pTyr, anti-ATF-2 […]/71, and anti-histone H3K4me3 antibodies, cells were in situ extracted with 0.5% Triton X-100 at 4° C. for 3 min before fixation with 4% paraformaldehyde. For HP1α staining, cells were fixed in 100% methanol at -20° C. for 10 min followed by permeabilization for 30 min in PBS containing 0.1% Triton X-100 at room temperature. Cells were reacted with anti-HP1α antibody for 1 h at room temperature, washed with PBS four times, and stained with secondary antibody for 1 h. Fluorescence intensity plots of anti-histone H3K4me3, anti-ATF-2 […]/71 and anti-HP1α antibody and PI staining (see FIGS. 18B, 19B, and 20B, respectively) were generated using Fluoview version 4.3 software (Olympus, Tokyo). For detection of the kinase activity of nuclear SFKs, purified nuclei suspended in kinase buffer (50 mM HEPES-NaOH, pH7.4, 5 mM MgCl2, 5 mM MnCl2 and 0.1 mM Na3VO4) were preincubated with or without 10 μM PP2 at 30° C. for 30 min, and subsequently incubated with 5 or 10 μM ATP at 30° C. for 30 min, followed by cytocentrifugation at 200×g for 5 min and fixation with 4% paraformaldehyde. DNA was stained with 20 μg/mL PI and 200 μg/mL RNase A for 30 min. Mean fluorescence intensity of tyrosine-phosphorylated proteins in the nucleus was measured using the ImageJ software (National Institutes of Health). Confocal images of PI-stained nuclei were obtained as described above. […]

| Compound | basal levels of chromatin condensation (COS-1, 10 μM PP2 or 100 nM wortmannin for 24 h, FIGS. 22 and 26) | chromatin hypo- and hypercondensation in Na3VO4-treated cells (COS-1, 10 μM PP2 pretreatment 21 h, then 3 mM Na3VO4 3 h, FIGS. 23 and 26) | serum-stimulated chromatin hypo- and hypercondensation (COS-1 starved 24 h (0.05% FBS), stimulated with 5% FBS in presence of 10 μM PP2, FIG. 16) | hyperosmotic stress-induced chromatin structural changes (cells not specified, hyperosmolar conditions, data not shown) | hypo- and hypercondensed chromatin states (COS-1, 3 mM Na3VO4 for 3 h, FIGS. 23 and 26) |
| --- | --- | --- | --- | --- | --- |
| CC(C)(C)n1nc(-c2ccc(Cl)cc2)c2c(N)ncnc21 [PP2] | significantly reduce | decrease | significantly inhibited | did not inhibit | – |
| [Na+].[Na+].[Na+].[O]=[V]([O-])([O-])[O-] [Na3VO4, sodium orthovanadate] | – | – | – | – | induced drastic changes |
